The text below walks through data of PubChem BioAssay (NCI).

Some test systems named below: XF 498 CNS; KM20L2 colon; HOP-18 NSCLC; DLD-1 colon; LXFL 529 NSCLC; MDA-N; RXF-631 renal; P388 leukemia; P388/ADR leukemia; SN12K1 renal.
Common to all, as to test: NCI tumour cell line growth inhibition, 48 h

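The compound was tested at five concentrations on cells cultured in 96-well plates, with a 48-hour exposure period. GI50 is the concentration that inhibits growth by half. At the TGI there is no net growth.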 Where a SMILES comes first, the peptide text is derived from it. [ ]: non-standard residue; d: D form. 2Nal = N[CH](Cc1ccc2ccccc2c1)C(=O)O

`N/C(=N\C(=S)N1CCCCC1)N1CCCCC1`: the TGI in the assay with XF 498 CNS, in the assay on KM20L2 colon, in the assay with HOP-18 NSCLC, with DLD-1 colon and in the assay with LXFL 529 NSCLC was more than 100 µM each time.

Regarding `Oc1cccc(C2SCc3nc4ccccc4n32)c1` (stereo not drawn), the TGI with HOP-18 NSCLC, in the assay on DLD-1 colon and in the assay on LXFL 529 NSCLC was more than 100 µM each time.

With `O=C1OC(c2ccc([N+](=O)[O-])cc2)=N/C1=C\c1ccc(O)cc1`, in the assay on MDA-N, the TGI was more than 100 µM.

In the assay with MDA-N, `O=C(O)[C@@H]1C[C@@H](O)CN1` came in with a TGI of more than 100 µM.

As for `COc1ccc(-c2c(N)[n+]([O-])c3cc(C)c(C)cc3[n+]2[O-])cc1OC`, the TGI was more than 100 µM in the assay with XF 498 CNS; more than 100 µM in the assay on KM20L2 colon; more than 100 µM with HOP-18 NSCLC; more than 100 µM with DLD-1 colon; more than 100 µM in the assay with LXFL 529 NSCLC; 38.8 µM in the assay on RXF-631 renal.

With `C=CC1=C(C)C2=NC1=CC1=NC(=C(CC)/C1=C/O)C=C1C=C3C(=O)C(C(=O)OC)C(=C4NC(=C2)C(C)C4CCC(=O)OC/C=C(\C)CCCC(C)CCCC(C)CCCC(C)C)C3=N1` (stereo not drawn) (tested in a mixture with another compound), in the assay on MDA-N, the TGI was more than 100 µM.

As for `O=C(O)C1Cc2nc[nH]c2CN1` (stereo not drawn), the TGI with KM20L2 colon, in the assay with HOP-18 NSCLC, in the assay on DLD-1 colon, in the assay with LXFL 529 NSCLC and in the assay with RXF-631 renal was more than 100 µM throughout.

Turning to `COc1cc(C2C(C(=O)O)=C(C)Oc3cc4c(cc32)OCO4)cc(OC)c1OC` (stereo not drawn), the TGI was 95.9 µM in the assay with XF 498 CNS; more than 100 µM with KM20L2 colon; more than 100 µM with HOP-18 NSCLC; more than 100 µM in the assay on DLD-1 colon; more than 100 µM in the assay on RXF-631 renal.

For `Nc1nc(N)c(-c2ccccc2)c(C(=O)Nc2ccc(Cl)c(Cl)c2)n1`, the TGI with KM20L2 colon, in the assay with HOP-18 NSCLC, in the assay with DLD-1 colon, in the assay on LXFL 529 NSCLC and in the assay with RXF-631 renal was more than 100 µM in each case.

For the molecule `NC1=C(c2nc(-c3cc4ccccc4oc3=O)cs2)C(c2ccco2)c2c(c3ccccc3oc2=O)O1` (stereo not drawn), in the assay with MDA-N, the GI50 is more than 150 µg/mL and the TGI is more than 150 µg/mL.

`Fc1cccc(F)c1C1SCc2nc3ccccc3n21` (stereo not drawn): the TGI with XF 498 CNS, in the assay with KM20L2 colon, with HOP-18 NSCLC, in the assay with DLD-1 colon and with LXFL 529 NSCLC was more than 100 µM each time.

For the molecule `CC1CC2C3CC(F)C4=CC(=O)C=CC4(C)C3(F)C(O)CC2(C)C1(O)C(=O)CO` (stereo not drawn), the TGI in the assay on XF 498 CNS, in the assay on KM20L2 colon, with DLD-1 colon and with RXF-631 renal was more than 100 µM each time.

`CC1=COC2=C(C)C(=O)C(=O)c3c(C)ccc1c32` came in with a TGI in the assay with MDA-N of 3.26 µM.

Consider `COc1cc2c(cc1OC)-c1c(cc(OC)c(OC)c1OC)C2=O`, for which the TGI in the assay on KM20L2 colon, with HOP-18 NSCLC, with DLD-1 colon, with LXFL 529 NSCLC and in the assay with RXF-631 renal was more than 100 µM throughout.

As for `COC(=O)C1CCc2c(OC)ccc(OC)c2C1=O` (stereo not drawn), the TGI in the assay on KM20L2 colon, in the assay on HOP-18 NSCLC, with DLD-1 colon and in the assay on LXFL 529 NSCLC was more than 100 µM each time.

In the assay on MDA-N, `N#Cc1c(NC(=O)CCC(=O)O)ccc2ccccc12` came in with a TGI of more than 100 µM.

Consider `Cc1cccc(NC(=O)CC2C(=O)Nc3ccccc3S2(=O)=O)c1C` (stereo not drawn), for which the TGI with KM20L2 colon was more than 100 µM; with HOP-18 NSCLC, 61.9 µM; with DLD-1 colon, more than 100 µM; in the assay with LXFL 529 NSCLC, more than 100 µM.

With `O=C(C#Cc1c[nH]c(=O)[nH]c1=O)c1ccccc1`, the TGI with HOP-18 NSCLC stood at 29.2 µM; with DLD-1 colon, 23.4 µM; in the assay with RXF-631 renal it was 27.4 µM.

`c1ccc(-c2cc(-c3cc(-c4ccccn4)[nH]n3)n[nH]2)nc1`: in the assay with MDA-N, the TGI was more than 100 µM.

`Cc1ccccc1NC(=O)C(=O)Cc1nc2ccccc2s1`: the TGI in the assay on XF 498 CNS, in the assay on HOP-18 NSCLC, in the assay on DLD-1 colon, with LXFL 529 NSCLC and in the assay on RXF-631 renal was more than 100 µM each time.

As to `O=C(O)/C(O)=C1/C=C(c2ccccc2)c2ccccc21`, the TGI with KM20L2 colon was 97.2 µM; with HOP-18 NSCLC it was 47.4 µM; in the assay on DLD-1 colon, more than 100 µM; in the assay with LXFL 529 NSCLC, 91.4 µM; in the assay with RXF-631 renal it was 86.3 µM.

In the assay on MDA-N, `CC(=O)N1c2ccccc2C23CCN4CC5=CCOC(O)C(C5CC42)C13` (stereo not drawn) came in with a TGI of more than 100 µM.

For `Cc1ccc(NC(=O)SCCC(=O)O)cc1NC(=O)SCCC(=O)O`, the TGI is more than 100 µM in the assay on KM20L2 colon, more than 10 µM with DLD-1 colon and more than 100 µM in the assay on LXFL 529 NSCLC.

For `CC(NC1CCC[C@H]1O)c1ccccc1` (mixture of isomers), the TGI with XF 498 CNS, in the assay on KM20L2 colon and in the assay on HOP-18 NSCLC was more than 100 µM in each case.

`CC1=CC(C)C(O)C(C)/C=C/C(O)C/C=C(/C)C(=O)CC(O)C(C)\C=C/C=C/C=C\C(=O)NC2=C(O)c3cc(C)c(O)c(c3C(=O)C2=O)C1=O` (stereo not drawn) had a TGI with MDA-N of more than 100 µM.

Take `C=C(CO)CC(O)c1ccccc1` (stereo not drawn): the TGI with XF 498 CNS, with KM20L2 colon, with DLD-1 colon, with LXFL 529 NSCLC and with RXF-631 renal was more than 100 µM throughout.

For the molecule `COC1OC(C)C(OC(=O)C(C)(C)C)C(C)(O)C1O` (stereo not drawn), the TGI in the assay on XF 498 CNS, with KM20L2 colon, in the assay on HOP-18 NSCLC, with DLD-1 colon and in the assay with LXFL 529 NSCLC was more than 100 µM each time.

The molecule `NC(C(=O)O)C(N)C(=O)O` (stereo not drawn) registered a TGI in the assay with MDA-N of more than 100 µM.

On to `C=C(C)C1CC[C@]2(C(=O)O)CCC3(C)[C@H](CCC4[C@@]5(C)CC[C@H](OC6OC(CO)C(O)C6OC6OC(C)C(O)C(O)C6O)[C@@](C)(CO)C5CC[C@]43C)C12` (stereo partly drawn), for which the TGI with XF 498 CNS, in the assay on KM20L2 colon, in the assay with DLD-1 colon, with LXFL 529 NSCLC and in the assay with RXF-631 renal was more than 100 µM in each case.

On to `CC(=O)O[C@H]1CCC2[C@@H]3CCC4C(=O)c5oncc5C[C@]4(C)C3CC[C@@]21C` (stereo partly drawn), for which the TGI with XF 498 CNS, in the assay on KM20L2 colon, with DLD-1 colon and in the assay on LXFL 529 NSCLC was more than 100 µM throughout.

With `CNC(=O)OCc1nc(S(C)=O)n(C)c1COC(=O)NC` (stereo not drawn), the TGI in the assay with P388 leukemia, in the assay with XF 498 CNS, in the assay with KM20L2 colon, in the assay on HOP-18 NSCLC, with DLD-1 colon and in the assay on P388/ADR leukemia was more than 100 µM each time. Further, the TGI in the assay with SN12K1 renal is more than 100 µM; in the assay with LXFL 529 NSCLC it was more than 51.8 µM; with RXF-631 renal, more than 100 µM.

Turning to `CSc1s[s+]c(SC)c1[O-]`, the TGI in the assay with XF 498 CNS was more than 100 µM; with KM20L2 colon it was more than 100 µM; in the assay with HOP-18 NSCLC, more than 100 µM; with DLD-1 colon, 33.6 µM; in the assay with LXFL 529 NSCLC, 38.7 µM; in the assay with RXF-631 renal, 41.8 µM.

`O=C1/C(=C\c2ccccc2)c2ccccc2N1Cc1ccccc1` had a TGI in the assay on MDA-N of 13.4 µM.

`O=C=Nc1ccc(Cc2ccc(N=C=O)cc2)cc1` (tested in a mixture with another compound): in the assay on MDA-N, the GI50 is more than 25 µg/mL and the TGI was more than 25 µg/mL.

Regarding `CC(NC(=O)C(N)Cc1ccccc1)C(=O)NC(Cc1ccc(O)cc1)C(=O)NC(Cc1c[nH]c2ccccc12)C(=O)NC(CCCCN)C(=O)NC(C(=O)NC(C)C(=O)NC(Cc1ccc2ccccc2c1)C(N)=O)C(C)C` (stereo not drawn) (H-FAYWKVA[2Nal]-NH2; configuration not given here), the TGI in the assay on XF 498 CNS was 54.9 µM; in the assay on KM20L2 colon, 78 µM; in the assay on HOP-18 NSCLC it was 46.3 µM; in the assay on DLD-1 colon, more than 100 µM.

Consider `COc1ccc(C(=O)C(C(=O)C(=O)Nc2nc3ccc(OC)cc3s2)c2ccc(OC)cc2)cc1` (stereo not drawn), for which the TGI in the assay with XF 498 CNS, with KM20L2 colon, with HOP-18 NSCLC, in the assay with DLD-1 colon, in the assay with LXFL 529 NSCLC and in the assay with RXF-631 renal was more than 100 µM each time.

Regarding `CC1CC(=O)C(C(O)CC2CC(=O)N(c3ccccc3)C(=O)C2)C(C)C1` (stereo not drawn), the TGI in the assay with KM20L2 colon, in the assay on HOP-18 NSCLC, with DLD-1 colon and in the assay with LXFL 529 NSCLC was more than 100 µM throughout.

With `CC(=O)Nc1ccc(/C=c2\sc3nnc(/C=C/c4ccccc4)n3c2=O)cc1`, the TGI with XF 498 CNS, with KM20L2 colon, in the assay on HOP-18 NSCLC, in the assay with DLD-1 colon, in the assay on LXFL 529 NSCLC and with RXF-631 renal was more than 50 µM each time.
